{
  "source": "ChEMBL document CHEMBL1138495",
  "about": "“Inhibition of subgenomic hepatitis C virus RNA replication by acridone derivatives: identification of an NS3 helicase inhibitor” (J Med Chem, 2009)",
  "key": {"Hepatitis C virus": {"tested_on": "Hepatitis C virus", "test": "Antiviral activity against HCV infected in human HuH5.2 assessed as inhibition of viral RNA synthesis after 4 days by Steady-Glo-luciferase assay", "format": "functional, organism-based, Hepacivirus hominis", "conditions": "Huh-5-2, 96 h"}, "[1]": {"test": "Cytostatic activity against human HuH5.2 after 3 days by MTS/PMS assay", "format": "ADME, Huh-5-2", "conditions": "HuH5.2 cells"}, "[2]": {"test": "Inhibition of ATPase activity of HCV […] expressed in Escherichia coli", "parameters": "species or system Hepacivirus hominis"}, "Hepacivirus hominis": {"tested_on": "Hepacivirus hominis", "test": "Inhibition of HCV recombinant NS5B RNA polymerase expressed in Escherichia coli up to 100 uM by liquid scintillation counter"}},
  "note": "pIC50: −log10 of the molar value. Activity calls are given as the source filed them. No cut-off for these calls is given here.",
  "data": [
    {"smiles": "Cn1ccc(=O)c2cc(N)c(N3CCN(c4ccccn4)CC3)cc21", "values": [
      {"measurement": "EC50", "setting": "Hepatitis C virus", "result": 11, "unit": "mg/L"},
      {"measurement": "CC50 at 72 h", "setting": "[1]", "result": "> 33", "unit": "mg/L"},
      {"measurement": "pIC50", "setting": "[2]", "result": "< 3.00"},
      {"measurement": "Activity", "setting": "Hepacivirus hominis", "result": "inactive"}
    ]},
    {"smiles": "COc1cc2c(cc1N)c(=O)c1c(O)cc(O)cc1n2C", "values": [
      {"measurement": "EC50", "setting": "Hepatitis C virus", "result": 5, "unit": "mg/L"},
      {"measurement": "CC50 at 72 h", "setting": "[1]", "result": 26, "unit": "mg/L"},
      {"measurement": "pIC50", "setting": "[2]", "result": "< 3.00"},
      {"measurement": "Activity", "setting": "Hepacivirus hominis", "result": "inactive"}
    ]},
    {"smiles": "Nc1cc2c(=O)c3c(O)cc(O)cc3[nH]c2cc1Cl", "values": [
      {"measurement": "EC50", "setting": "Hepatitis C virus", "result": 19, "unit": "mg/L"},
      {"measurement": "CC50 at 72 h", "setting": "[1]", "result": 25, "unit": "mg/L"},
      {"measurement": "pIC50", "setting": "[2]", "result": "< 3.00"},
      {"measurement": "Activity", "setting": "Hepacivirus hominis", "result": "inactive"}
    ]},
    {"smiles": "COc1ccc(C(=O)c2ccc(N3CCN(c4ccccn4)CC3)c(N)c2)c(OC)c1", "values": [
      {"measurement": "EC50", "setting": "Hepatitis C virus", "result": 6.6, "unit": "mg/L"},
      {"measurement": "CC50 at 72 h", "setting": "[1]", "result": 15, "unit": "mg/L"},
      {"measurement": "pIC50", "setting": "[2]", "result": "< 3.00"},
      {"measurement": "Activity", "setting": "Hepacivirus hominis", "result": "inactive"}
    ]},
    {"smiles": "COc1cc(OC)c2c(=O)c3cc(N)c(Cl)cc3n(CCC(C)C)c2c1", "values": [
      {"measurement": "EC50", "setting": "Hepatitis C virus", "result": "> 50", "unit": "mg/L"},
      {"measurement": "CC50 at 72 h", "setting": "[1]", "result": "> 50", "unit": "mg/L"},
      {"measurement": "pIC50", "setting": "[2]", "result": "< 3.00"},
      {"measurement": "Activity", "setting": "Hepacivirus hominis", "result": "inactive"}
    ]},
    {"smiles": "COc1cc(OC)c2c(=O)c3cc(N)c(N4CCN(c5ccccn5)CC4)cc3[nH]c2c1", "values": [
      {"measurement": "EC50", "setting": "Hepatitis C virus", "result": 4, "unit": "mg/L"},
      {"measurement": "CC50 at 72 h", "setting": "[1]", "result": 19, "unit": "mg/L"},
      {"measurement": "pIC50", "setting": "[2]", "result": "< 3.00"},
      {"measurement": "Activity", "setting": "Hepacivirus hominis", "result": "inactive"}
    ]},
    {"smiles": "COc1cc(OC)c2c(=O)c3cc(N)c(Cl)cc3[nH]c2c1", "values": [
      {"measurement": "EC50", "setting": "Hepatitis C virus", "result": 5.7, "unit": "mg/L"},
      {"measurement": "CC50 at 72 h", "setting": "[1]", "result": 13, "unit": "mg/L"},
      {"measurement": "pIC50", "setting": "[2]", "result": "< 3.00"},
      {"measurement": "Activity", "setting": "Hepacivirus hominis", "result": "inactive"}
    ]},
    {"smiles": "COc1cc(OC)c2c(=O)c3cc(N)c(OC)cc3n(C)c2c1", "values": [
      {"measurement": "EC50", "setting": "Hepatitis C virus", "result": 9, "unit": "mg/L"},
      {"measurement": "CC50 at 72 h", "setting": "[1]", "result": "> 50", "unit": "mg/L"},
      {"measurement": "pIC50", "setting": "[2]", "result": "< 3.00"},
      {"measurement": "Activity", "setting": "Hepacivirus hominis", "result": "inactive"}
    ]},
    {"smiles": "CCn1c2cc(N3CCN(c4ccccn4)CC3)c(N)cc2c(=O)c2c(OC)cc(OC)cc21", "values": [
      {"measurement": "EC50", "setting": "Hepatitis C virus", "result": 4, "unit": "mg/L"},
      {"measurement": "CC50 at 72 h", "setting": "[1]", "result": 11, "unit": "mg/L"},
      {"measurement": "pIC50", "setting": "[2]", "result": "< 3.00"},
      {"measurement": "Activity", "setting": "Hepacivirus hominis", "result": "inactive"}
    ]},
    {"smiles": "COc1ccc(C(=O)c2ccc(N3CCN(c4ccccn4)CC3)c(N)c2)c(O)c1", "values": [
      {"measurement": "EC50", "setting": "Hepatitis C virus", "result": 3.7, "unit": "mg/L"},
      {"measurement": "CC50 at 72 h", "setting": "[1]", "result": "> 50", "unit": "mg/L"},
      {"measurement": "pIC50", "setting": "[2]", "result": "< 3.00"},
      {"measurement": "Activity", "setting": "Hepacivirus hominis", "result": "inactive"}
    ]},
    {"smiles": "COc1cc2c(=O)c3cc(N)c(N4CCN(c5ccccn5)CC4)cc3n(C)c2cc1OC", "values": [
      {"measurement": "EC50", "setting": "Hepatitis C virus", "result": 6, "unit": "mg/L"},
      {"measurement": "CC50 at 72 h", "setting": "[1]", "result": 14, "unit": "mg/L"},
      {"measurement": "pIC50", "setting": "[2]", "result": "< 3.00"},
      {"measurement": "Activity", "setting": "Hepacivirus hominis", "result": "inactive"}
    ]},
    {"smiles": "CCOc1cc(OC)cc2c1c(=O)c1cc(N)c(N3CCN(c4ccccn4)CC3)cc1n2C", "values": [
      {"measurement": "EC50", "setting": "Hepatitis C virus", "result": 4, "unit": "mg/L"},
      {"measurement": "CC50 at 72 h", "setting": "[1]", "result": "> 50", "unit": "mg/L"},
      {"measurement": "pIC50", "setting": "[2]", "result": "< 3.00"},
      {"measurement": "Activity", "setting": "Hepacivirus hominis", "result": "inactive"}
    ]},
    {"smiles": "Cn1c2cc(N3CCN(c4nc5ccccc5o4)CC3)c(N)cc2c(=O)c2c(O)cc(O)cc21", "values": [
      {"measurement": "EC50", "setting": "Hepatitis C virus", "result": 17, "unit": "mg/L"},
      {"measurement": "CC50 at 72 h", "setting": "[1]", "result": "> 50", "unit": "mg/L"},
      {"measurement": "pIC50", "setting": "[2]", "result": "< 3.00"},
      {"measurement": "Activity", "setting": "Hepacivirus hominis", "result": "inactive"}
    ]},
    {"smiles": "COc1cc(OC)cc(N(C)c2cc(N3CCN(c4ccccn4)CC3)c(N)cc2C(=O)O)c1", "values": [
      {"measurement": "EC50", "setting": "Hepatitis C virus", "result": "> 50", "unit": "mg/L"},
      {"measurement": "CC50 at 72 h", "setting": "[1]", "result": "> 50", "unit": "mg/L"},
      {"measurement": "pIC50", "setting": "[2]", "result": "< 3.00"},
      {"measurement": "Activity", "setting": "Hepacivirus hominis", "result": "inactive"}
    ]},
    {"smiles": "COc1cc(OC)c2c(=O)c3cc(N)c(N4CCN(c5ccccn5)CC4)cc3n(CCC(C)C)c2c1", "values": [
      {"measurement": "EC50", "setting": "Hepatitis C virus", "result": 10, "unit": "mg/L"},
      {"measurement": "CC50 at 72 h", "setting": "[1]", "result": 10, "unit": "mg/L"},
      {"measurement": "pIC50", "setting": "[2]", "result": "< 3.00"},
      {"measurement": "Activity", "setting": "Hepacivirus hominis", "result": "inactive"}
    ]},
    {"smiles": "Cn1c2ccccc2c(=O)c2cc(N)c(N3CCN(c4ccccn4)CC3)cc21", "values": [
      {"measurement": "EC50", "setting": "Hepatitis C virus", "result": 4, "unit": "mg/L"},
      {"measurement": "CC50 at 72 h", "setting": "[1]", "result": 29, "unit": "mg/L"},
      {"measurement": "pIC50", "setting": "[2]", "result": "< 3.00"},
      {"measurement": "Activity", "setting": "Hepacivirus hominis", "result": "inactive"}
    ]},
    {"smiles": "COc1cc(OC)c2c(=O)c3cc(N)c(N4CCN(c5nc6ccccc6o5)CC4)cc3n(C)c2c1", "values": [
      {"measurement": "EC50", "setting": "Hepatitis C virus", "result": 27, "unit": "mg/L"},
      {"measurement": "CC50 at 72 h", "setting": "[1]", "result": "> 50", "unit": "mg/L"},
      {"measurement": "pIC50", "setting": "[2]", "result": "< 3.00"},
      {"measurement": "Activity", "setting": "Hepacivirus hominis", "result": "inactive"}
    ]},
    {"smiles": "COc1cc(O)c2c(=O)c3cc(N)c(N4CCN(c5nc6ccccc6o5)CC4)cc3n(C)c2c1", "values": [
      {"measurement": "EC50", "setting": "Hepatitis C virus", "result": 50, "unit": "mg/L"},
      {"measurement": "CC50 at 72 h", "setting": "[1]", "result": "> 50", "unit": "mg/L"},
      {"measurement": "pIC50", "setting": "[2]", "result": "< 3.00"},
      {"measurement": "Activity", "setting": "Hepacivirus hominis", "result": "inactive"}
    ]},
    {"smiles": "COc1cc(OC)c2c(=O)c3cc(N)c(N4CCN(c5ccccc5OC)CC4)cc3n(C)c2c1", "values": [
      {"measurement": "EC50", "setting": "Hepatitis C virus", "result": 16, "unit": "mg/L"},
      {"measurement": "CC50 at 72 h", "setting": "[1]", "result": "> 50", "unit": "mg/L"},
      {"measurement": "pIC50", "setting": "[2]", "result": "< 3.00"},
      {"measurement": "Activity", "setting": "Hepacivirus hominis", "result": "inactive"}
    ]},
    {"smiles": "COc1cc(OCC(=O)O)c2c(=O)c3cc(N)c(N4CCN(c5ccccn5)CC4)cc3n(C)c2c1", "values": [
      {"measurement": "EC50", "setting": "Hepatitis C virus", "result": 35, "unit": "mg/L"},
      {"measurement": "CC50 at 72 h", "setting": "[1]", "result": "> 50", "unit": "mg/L"},
      {"measurement": "pIC50", "setting": "[2]", "result": "< 3.00"},
      {"measurement": "Activity", "setting": "Hepacivirus hominis", "result": "inactive"}
    ]},
    {"smiles": "CCn1c2cc(Cl)c(N)cc2c(=O)c2c(O)cc(O)cc21", "values": [
      {"measurement": "EC50", "setting": "Hepatitis C virus", "result": 5, "unit": "mg/L"},
      {"measurement": "CC50 at 72 h", "setting": "[1]", "result": "> 50", "unit": "mg/L"},
      {"measurement": "pIC50", "setting": "[2]", "result": "< 3.00"},
      {"measurement": "Activity", "setting": "Hepacivirus hominis", "result": "inactive"}
    ]},
    {"smiles": "CCn1c2cc(Cl)c(N)cc2c(=O)c2c(OC)cc(OC)cc21", "values": [
      {"measurement": "EC50", "setting": "Hepatitis C virus", "result": 5, "unit": "mg/L"},
      {"measurement": "CC50 at 72 h", "setting": "[1]", "result": 14, "unit": "mg/L"},
      {"measurement": "pIC50", "setting": "[2]", "result": "< 3.00"},
      {"measurement": "Activity", "setting": "Hepacivirus hominis", "result": "inactive"}
    ]}
  ]
}
